Measured values: paper PMC7073924, “2-Aminomethylene-5-sulfonylthiazole Inhibitors of Lysyl Oxidase (LOX) and LOXL2 Show Significant Efficacy in Delaying Tumor Growth” (Journal of Medicinal Chemistry, 2019)
pIC50: −log10 of the molar value. Several values for one entry are separate records, joined by “and”; a condition that tells them apart may be missing. Identical values can stand only once. Counter-ions that a name gives are not always drawn.

Key:
MAO-A = target: T1, MAO-A (Homo sapiens, UniProt P21397); type: biochemical; details: Table 7
T1 construct: purchased Sigma
T1 sequence (P21397 1-527): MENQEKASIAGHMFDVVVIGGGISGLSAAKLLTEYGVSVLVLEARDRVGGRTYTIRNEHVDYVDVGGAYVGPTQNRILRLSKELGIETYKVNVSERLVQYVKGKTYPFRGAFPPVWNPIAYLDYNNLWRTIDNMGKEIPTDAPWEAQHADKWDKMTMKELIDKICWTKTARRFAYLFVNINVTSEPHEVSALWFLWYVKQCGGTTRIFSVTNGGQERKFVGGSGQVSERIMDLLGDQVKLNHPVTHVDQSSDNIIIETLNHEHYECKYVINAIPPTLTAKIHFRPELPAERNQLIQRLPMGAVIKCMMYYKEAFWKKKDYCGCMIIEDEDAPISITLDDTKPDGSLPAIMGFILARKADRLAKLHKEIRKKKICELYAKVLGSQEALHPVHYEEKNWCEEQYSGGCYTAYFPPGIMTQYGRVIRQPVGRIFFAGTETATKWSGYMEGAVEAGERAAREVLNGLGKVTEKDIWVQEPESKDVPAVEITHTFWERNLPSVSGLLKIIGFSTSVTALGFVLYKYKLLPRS
Description: (§1) All amine oxidase assays were performed with concentrations as above. MAO-A and MAO-B enzymes were purchased from Sigma. The catalytic activity of MAO-A and MAO-B was determined using the Promega MAO-Glo assay kit (substrate included), with clorgyline and deprenyl as reference inhibitor controls, respectively. DAO was purchased from Sigma, and the catalytic activity was determined using the Promega ROS-Glo assay kit, with aminoguanidine as the reference inhibitor control. SSAO was purchased from Sigma. SSAO catalytic activity was determined using the Promega MAO-Glo assay kit, with mofegiline as the reference inhibitor control.

[1] = target: hERG human potassium ion channel (Homo sapiens, UniProt Q12809)
Sequence of hERG human potassium ion channel (Q12809 whole entry): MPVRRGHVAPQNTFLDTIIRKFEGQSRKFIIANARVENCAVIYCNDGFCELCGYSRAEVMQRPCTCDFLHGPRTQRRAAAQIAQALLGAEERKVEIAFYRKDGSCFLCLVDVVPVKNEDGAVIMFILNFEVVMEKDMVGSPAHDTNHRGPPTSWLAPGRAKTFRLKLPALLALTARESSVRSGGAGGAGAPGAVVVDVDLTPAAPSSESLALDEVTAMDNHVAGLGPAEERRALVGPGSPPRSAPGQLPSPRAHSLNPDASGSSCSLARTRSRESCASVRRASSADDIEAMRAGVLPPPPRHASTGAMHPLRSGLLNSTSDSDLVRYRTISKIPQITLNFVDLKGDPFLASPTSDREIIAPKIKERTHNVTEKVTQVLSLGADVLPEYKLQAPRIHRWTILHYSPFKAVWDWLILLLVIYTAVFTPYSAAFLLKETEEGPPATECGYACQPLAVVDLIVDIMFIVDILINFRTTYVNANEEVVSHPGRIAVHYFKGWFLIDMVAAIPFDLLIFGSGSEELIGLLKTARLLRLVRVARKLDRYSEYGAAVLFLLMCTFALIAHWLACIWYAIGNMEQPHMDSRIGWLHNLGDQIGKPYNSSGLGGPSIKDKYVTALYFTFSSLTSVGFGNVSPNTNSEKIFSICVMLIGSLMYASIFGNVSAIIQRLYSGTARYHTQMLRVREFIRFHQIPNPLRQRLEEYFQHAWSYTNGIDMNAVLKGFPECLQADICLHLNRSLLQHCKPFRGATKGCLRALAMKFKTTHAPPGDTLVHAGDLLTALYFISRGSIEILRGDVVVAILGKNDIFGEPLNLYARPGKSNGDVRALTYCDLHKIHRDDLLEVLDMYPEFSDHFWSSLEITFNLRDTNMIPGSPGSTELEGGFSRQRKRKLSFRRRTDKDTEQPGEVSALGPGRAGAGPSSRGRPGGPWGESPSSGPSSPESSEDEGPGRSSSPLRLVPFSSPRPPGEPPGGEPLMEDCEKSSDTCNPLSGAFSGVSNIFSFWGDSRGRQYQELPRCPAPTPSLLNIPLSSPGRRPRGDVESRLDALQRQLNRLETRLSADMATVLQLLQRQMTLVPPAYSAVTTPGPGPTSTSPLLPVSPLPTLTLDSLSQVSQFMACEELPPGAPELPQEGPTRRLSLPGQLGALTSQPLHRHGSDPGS
Description: hERG inhibition was determined using the “hERG human potassium ion channel cell based antagonist Qpatch assay” by Eurofins Ltd. Cell permeability was determined using the “Caco-2 permeability assay” by Cyprotex Ltd.

MAO-B = target: T2, MAO-B (Homo sapiens, UniProt P27338); type: biochemical; details: Table 7
T2 construct: purchased Sigma
T2 sequence (P27338 1-520): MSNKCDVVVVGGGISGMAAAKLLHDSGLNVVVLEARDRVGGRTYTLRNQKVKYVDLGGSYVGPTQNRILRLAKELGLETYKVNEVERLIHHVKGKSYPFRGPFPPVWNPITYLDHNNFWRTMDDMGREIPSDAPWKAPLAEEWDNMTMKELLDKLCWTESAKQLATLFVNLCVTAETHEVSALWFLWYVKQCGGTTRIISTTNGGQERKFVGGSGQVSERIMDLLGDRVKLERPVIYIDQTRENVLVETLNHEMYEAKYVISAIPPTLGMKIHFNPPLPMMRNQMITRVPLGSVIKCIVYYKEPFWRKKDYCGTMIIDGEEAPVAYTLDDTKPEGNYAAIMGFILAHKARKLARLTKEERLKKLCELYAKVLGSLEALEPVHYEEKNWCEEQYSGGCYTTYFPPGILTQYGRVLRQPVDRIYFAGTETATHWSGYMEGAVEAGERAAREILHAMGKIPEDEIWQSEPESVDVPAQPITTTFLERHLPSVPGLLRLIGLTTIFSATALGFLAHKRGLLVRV
Description: as §1

SSAO = target: T3, SSAO (Homo sapiens, UniProt Q16853); type: biochemical; details: Table 7
T3 construct: purchased Sigma
T3 sequence (Q16853 1-763): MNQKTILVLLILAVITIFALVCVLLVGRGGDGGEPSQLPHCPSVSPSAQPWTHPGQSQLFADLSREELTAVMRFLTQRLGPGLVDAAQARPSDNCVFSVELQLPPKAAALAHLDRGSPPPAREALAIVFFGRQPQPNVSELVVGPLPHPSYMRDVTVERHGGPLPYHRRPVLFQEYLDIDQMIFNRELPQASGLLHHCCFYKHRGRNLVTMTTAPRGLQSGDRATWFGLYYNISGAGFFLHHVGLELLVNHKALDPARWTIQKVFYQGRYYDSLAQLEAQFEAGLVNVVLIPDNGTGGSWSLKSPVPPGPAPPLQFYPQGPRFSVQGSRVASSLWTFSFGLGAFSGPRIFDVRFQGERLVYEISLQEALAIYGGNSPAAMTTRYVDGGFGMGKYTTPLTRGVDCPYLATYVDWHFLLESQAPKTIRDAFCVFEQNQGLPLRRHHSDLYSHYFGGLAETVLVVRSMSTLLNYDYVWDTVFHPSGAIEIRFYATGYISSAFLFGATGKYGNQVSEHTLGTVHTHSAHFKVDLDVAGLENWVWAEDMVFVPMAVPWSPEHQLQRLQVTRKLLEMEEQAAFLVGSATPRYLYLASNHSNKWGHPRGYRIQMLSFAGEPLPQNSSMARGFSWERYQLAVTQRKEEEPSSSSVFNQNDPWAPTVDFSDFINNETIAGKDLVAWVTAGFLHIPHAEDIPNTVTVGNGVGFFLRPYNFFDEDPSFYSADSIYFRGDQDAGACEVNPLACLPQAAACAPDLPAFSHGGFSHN
Description: as §1

MLM stability assay = type: in vitro ADME; details: mouse liver microsomes; percentage of compound remaining after 30 min; 10 μM
Description: Mouse liver microsomes (CD1 female; M1500) and rat liver microsomes (Sprague Dawley female; R1500) were purchased from Tebu-bio, and the assay was performed by methods previously described.[21] Inhibitors at 10 μM concentration incubated with the microsomes were assessed at 0, 15, and 30 min. Control samples containing no microsomes and no cofactors were also assessed at 0 and 30 min. Samples were extracted by protein precipitation, and centrifugation for 20 min in a refrigerated centrifuge (4 °C) at 3700 rpm. The supernatant was analyzed by LC–MS/MS for % metabolized over time.

In vivo PK, mouse = details: single po dose 50 mg/kg
Excerpt: Female Balb/C or CD1 nude mice (Charles River Laboratories) at 6 weeks of age were used for the mouse PK analyses. […] Three mice were used per time-point per route; average values are reported. They were placed under halothane or isoflurane anesthesia, and blood for plasma preparation was taken by terminal cardiac puncture into heparinized syringes.

DAO = target: T4, DAO (Sus scrofa, UniProt Q9TRC7); type: biochemical; details: Table 7
T4 construct: purchased Sigma
T4 sequence (Q9TRC7 25-755): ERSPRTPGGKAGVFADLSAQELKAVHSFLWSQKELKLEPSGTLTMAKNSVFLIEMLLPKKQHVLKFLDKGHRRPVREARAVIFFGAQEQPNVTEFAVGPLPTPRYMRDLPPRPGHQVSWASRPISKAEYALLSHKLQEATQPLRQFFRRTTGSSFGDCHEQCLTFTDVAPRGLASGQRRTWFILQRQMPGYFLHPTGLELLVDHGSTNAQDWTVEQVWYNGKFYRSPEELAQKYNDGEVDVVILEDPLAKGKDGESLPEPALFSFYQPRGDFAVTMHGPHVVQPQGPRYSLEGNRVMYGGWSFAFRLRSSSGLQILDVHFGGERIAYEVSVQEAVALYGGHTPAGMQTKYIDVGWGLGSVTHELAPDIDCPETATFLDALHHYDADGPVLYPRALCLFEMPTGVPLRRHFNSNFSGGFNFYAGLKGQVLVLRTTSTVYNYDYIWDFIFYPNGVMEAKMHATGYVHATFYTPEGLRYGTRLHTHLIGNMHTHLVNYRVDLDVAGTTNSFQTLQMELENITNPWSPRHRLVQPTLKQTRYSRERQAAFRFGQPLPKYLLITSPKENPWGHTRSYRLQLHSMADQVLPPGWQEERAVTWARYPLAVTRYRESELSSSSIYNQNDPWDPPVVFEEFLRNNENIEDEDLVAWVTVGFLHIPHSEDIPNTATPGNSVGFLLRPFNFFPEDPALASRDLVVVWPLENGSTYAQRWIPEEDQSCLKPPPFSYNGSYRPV
Description: as §1

Cn1cc(-c2cc(F)cc(S(=O)(=O)c3cnc(CN)s3)c2)cn1 [Compound 21e, (5-((3-Fluoro-5-(1-methyl-1H-pyrazol-4-yl)phenyl)sulfonyl)thiazol-2-yl)methanamine Hydrochloride]
pIC50 (MAO-A): 4.21 and 4.18
pIC50 [1]: 4.18
pIC50 (MAO-B): < 4.00
pIC50 (SSAO): 4.44 and 4.39
MLM stability (%) (MLM stability assay): 90%
AUC(PO) (In vivo PK, mouse; mouse plasma): 4.48 µM·h
Cmax (In vivo PK, mouse; mouse plasma): 9.75 µM
t1/2(PO) (In vivo PK, mouse; mouse): 2.0 h
pIC50 (DAO): 4.67 and 4.65
